Test results published in patent publication US20030215462A1, “Use of UGT inhibitors to increase bioavailability” (priority 2001, published 2003).

Experiments:
UGT1A9 = biological target: T1, UGT1A9 (Homo sapiens, UniProt O60656); assay: Inhibition of raloxifene glucuronidation by recombinant UGT1A9 Supersomes; settings: for activity at 15 min, 10 µM / activity at 15 min, 25 µM / activity at 15 min, 50 µM: human, Supersomes with recombinant human UGT1A9, pH 7.5, probe raloxifene 50 μM; for Inhibition of raloxifene glucuronidation, UGT1A9, second line per inhibitor (G2): second line (G2, metabolite not given), raloxifene 50 μM, 250 μg/ml Supersomes, 1 mM UDPGA, 15 min
T1 sequence (O60656 26-530): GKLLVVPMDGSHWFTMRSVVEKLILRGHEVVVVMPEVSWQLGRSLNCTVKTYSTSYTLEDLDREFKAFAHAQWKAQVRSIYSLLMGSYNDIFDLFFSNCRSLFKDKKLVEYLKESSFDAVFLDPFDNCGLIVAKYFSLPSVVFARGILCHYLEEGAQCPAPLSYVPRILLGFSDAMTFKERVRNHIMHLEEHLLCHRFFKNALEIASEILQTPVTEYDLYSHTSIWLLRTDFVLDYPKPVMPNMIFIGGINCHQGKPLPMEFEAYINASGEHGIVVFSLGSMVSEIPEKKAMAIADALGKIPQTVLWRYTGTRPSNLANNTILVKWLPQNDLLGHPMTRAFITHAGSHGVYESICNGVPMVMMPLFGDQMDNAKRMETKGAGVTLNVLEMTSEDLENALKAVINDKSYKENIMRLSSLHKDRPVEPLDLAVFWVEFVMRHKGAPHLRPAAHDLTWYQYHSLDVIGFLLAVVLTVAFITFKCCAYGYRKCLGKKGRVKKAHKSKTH

[1] = tested on: UGT enzymes of human liver microsomes; assay: Inhibition of raloxifene glucuronidation (G1, G2) in human liver microsomes; type: biochemical; settings: for % of control metabolism (SD, n = 3), raloxifene glucuronide G1 / % of control metabolism (SD, n = 3), raloxifene glucuronide G2: human liver microsomes 250 μg/ml, 15 min
Source text: Compounds were eluted using a binary solvent gradient system. […] Solvent B was methanol. […] Detection was at 280 nm.

UGT1A3 = biological target: T2, UGT1A3 (Homo sapiens, UniProt P35503); assay: Inhibition of raloxifene glucuronidation by recombinant UGT1A3 Supersomes; settings: for activity at 15 min, 10 µM / activity at 15 min, 25 µM / activity at 15 min, 50 µM: human; for activity at 15 min, 10 µM: inhibitor 10 μM; for activity at 15 min, 25 µM: inhibitor 25 μM; for activity at 15 min, 50 µM: inhibitor 50 μM
T2 sequence (P35503 29-534): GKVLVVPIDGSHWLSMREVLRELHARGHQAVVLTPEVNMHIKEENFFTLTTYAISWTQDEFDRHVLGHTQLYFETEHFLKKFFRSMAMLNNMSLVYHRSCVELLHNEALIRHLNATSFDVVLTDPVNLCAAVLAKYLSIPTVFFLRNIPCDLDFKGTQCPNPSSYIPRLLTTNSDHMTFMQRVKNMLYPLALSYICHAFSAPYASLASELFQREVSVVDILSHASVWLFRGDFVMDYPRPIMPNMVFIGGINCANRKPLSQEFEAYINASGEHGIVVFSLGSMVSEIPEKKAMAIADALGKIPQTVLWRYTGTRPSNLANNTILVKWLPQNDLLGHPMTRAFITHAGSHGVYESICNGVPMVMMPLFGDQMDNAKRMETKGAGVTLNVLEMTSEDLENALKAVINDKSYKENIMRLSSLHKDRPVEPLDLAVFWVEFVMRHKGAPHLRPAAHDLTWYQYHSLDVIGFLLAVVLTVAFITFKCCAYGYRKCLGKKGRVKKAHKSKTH
Description: (§1) Compounds were eluted using a binary solvent gradient system. Solvent A was water brought to pH 8 with NH4OH. Solvent B was methanol. Solvent flow rate was 1 ml/min and the column temperature was maintained at 50° C. Detection was at 280 nm. […] The system was then returned to the initial conditions and equilibrated for 3 min.

[2] = tested on: UGT enzymes of pooled human jejunum microsomes; assay: Inhibition of estradiol (E2) glucuronidation in pooled human jejunum microsomes; type: biochemical; settings: jejunum HJ61, E2 50 μM
Source text: Compounds were eluted using a binary solvent gradient system where solvent A was dilute phosphoric acid (pH 3) and solvent B was 80:20 acetonitrile-methanol. […] Detection was at 280 nm.

UGT1A1 = biological target: T3, UGT1A1 (Homo sapiens, UniProt P22309); assay: Inhibition of raloxifene glucuronidation by recombinant UGT1A1 Supersomes; settings: UGT1A1
T3 sequence (P22309 26-533): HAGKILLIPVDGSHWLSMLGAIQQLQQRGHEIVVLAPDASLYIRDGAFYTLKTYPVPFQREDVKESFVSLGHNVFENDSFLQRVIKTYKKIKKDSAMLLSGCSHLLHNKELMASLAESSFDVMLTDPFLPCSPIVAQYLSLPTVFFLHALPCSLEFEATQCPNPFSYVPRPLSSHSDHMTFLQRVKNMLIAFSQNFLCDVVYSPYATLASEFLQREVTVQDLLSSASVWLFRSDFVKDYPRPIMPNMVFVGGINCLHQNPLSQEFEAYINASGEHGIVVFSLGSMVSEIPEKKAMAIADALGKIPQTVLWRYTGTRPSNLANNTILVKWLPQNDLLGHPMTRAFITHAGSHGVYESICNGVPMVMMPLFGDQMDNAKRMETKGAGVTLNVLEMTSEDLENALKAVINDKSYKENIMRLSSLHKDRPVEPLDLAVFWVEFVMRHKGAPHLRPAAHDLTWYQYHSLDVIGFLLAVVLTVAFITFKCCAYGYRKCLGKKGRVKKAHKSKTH
Description: as §1

[3] = inhibitor 2 μM, raloxifene 50 μM
[4] = inhibitor 5 μM, raloxifene 50 μM
[5] = inhibitor 10 μM, raloxifene 50 μM
[6] = inhibitor 25 μM, raloxifene 50 μM
[7] = inhibitor 50 μM, raloxifene 50 μM
[8] = inhibitor 100 μM, raloxifene 50 μM
[9] = inhibitor 500 μM, raloxifene 50 μM
[10] = liver lot 032101, inhibitor 50 μM
[11] = liver lot 062101, inhibitor 50 μM
[12] = liver lot 083000, inhibitor 50 μM
[13] = raloxifene 50 μM, inhibitor 10 μM
[14] = raloxifene 50 μM, inhibitor 25 μM
[15] = raloxifene 50 μM, inhibitor 50 μM
[16] = raloxifene 50 μM, inhibitor 100 μM
[17] = Supersomes with recombinant human UGT1A3, pH 7.5, probe raloxifene 50 μM, formation of glucuronide G1, % of control metabolism, raloxifene G1, UGT1A3
[18] = Supersomes with recombinant human UGT1A3, pH 7.5, probe raloxifene 50 μM, formation of glucuronide G2, % of control metabolism, raloxifene G2, UGT1A3
[19] = recombinant UGT1A3 Supersomes, pH 7.5, probe raloxifene 50 μM (formation of glucuronide G1), Inhibition of raloxifene glucuronidation, G1, UGT1A3, G1, raloxifene 50 μM, 250 μg/ml Supersomes, 1 mM UDPGA, 15 min
[20] = recombinant UGT1A3 Supersomes, pH 7.5, probe raloxifene 50 μM (formation of glucuronide G2), Inhibition of raloxifene glucuronidation, G2, UGT1A3, G2, raloxifene 50 μM, 250 μg/ml Supersomes, 1 mM UDPGA, 15 min

SMILES: O=c1c(O)c(-c2ccc(O)c(O)c2)oc2cc(O)cc(O)c12 [Quercetin]
- inhibition of raloxifene glucuronidation, in words (UGT1A9; UGT1A9): good inhibitor
- activity at 15 min, 10 µM (UGT1A9; formation of glucuronide G1, % of control metabolism, raloxifene G1, UGT1A9, inhibitor 10 μM): 59%
- activity at 15 min, 25 µM (UGT1A9; formation of glucuronide G1, % of control metabolism, raloxifene G1, UGT1A9, inhibitor 25 μM): 45%
- activity at 15 min, 50 µM (UGT1A9; formation of glucuronide G1, % of control metabolism, raloxifene G1, UGT1A9, inhibitor 50 μM): 26%
- activity at 15 min, 10 µM (UGT1A9; formation of glucuronide G2, % of control metabolism, raloxifene G2, UGT1A9, inhibitor 10 μM): 56%
- activity at 15 min, 25 µM (UGT1A9; formation of glucuronide G2, % of control metabolism, raloxifene G2, UGT1A9, inhibitor 25 μM): 39%
- activity at 15 min, 50 µM (UGT1A9; formation of glucuronide G2, % of control metabolism, raloxifene G2, UGT1A9, inhibitor 50 μM): 24%
- Inhibition of raloxifene glucuronidation, UGT1A9, second line per inhibitor (G2) (UGT1A9; inhibitor 5 μM): 85 (5)
- Inhibition of raloxifene glucuronidation, UGT1A9, second line per inhibitor (G2) (UGT1A9; inhibitor 10 μM): 56 (3)
- Inhibition of raloxifene glucuronidation, UGT1A9, second line per inhibitor (G2) (UGT1A9; inhibitor 25 μM): 39 (2)
- Inhibition of raloxifene glucuronidation, UGT1A9, second line per inhibitor (G2) (UGT1A9; inhibitor 50 μM): 24 (2)
- % of control metabolism (SD, n = 3), raloxifene glucuronide G1 [1, 3]: 82 (6) %
- % of control metabolism (SD, n = 3), raloxifene glucuronide G1 [1, 4]: 69 (1) %
- % of control metabolism (SD, n = 3), raloxifene glucuronide G1 [1, 5]: 48 (1) %
- % of control metabolism (SD, n = 3), raloxifene glucuronide G1 [1, 6]: 18 (1) %
- % of control metabolism (SD, n = 3), raloxifene glucuronide G1 [1, 7]: 8 (1) %
- % of control metabolism (SD, n = 3), raloxifene glucuronide G1 [1, 8]: 6 (2) %
- % of control metabolism (SD, n = 3), raloxifene glucuronide G1 [1, 9]: 0 (0) %
- % of control metabolism (SD, n = 3), raloxifene glucuronide G2 [1, 3]: 78 (3) %
- % of control metabolism (SD, n = 3), raloxifene glucuronide G2 [1, 4]: 67 (2) %
- % of control metabolism (SD, n = 3), raloxifene glucuronide G2 [1, 5]: 50 (1) %
- % of control metabolism (SD, n = 3), raloxifene glucuronide G2 [1, 6]: 25 (1) %
- % of control metabolism (SD, n = 3), raloxifene glucuronide G2 [1, 7]: 15 (1) %
- % of control metabolism (SD, n = 3), raloxifene glucuronide G2 [1, 8]: 13 (2) %
- % of control metabolism (SD, n = 3), raloxifene glucuronide G2 [1, 9]: 0 (0) %
- % of control metabolism, raloxifene G1 [1, 10]: 25 (1) %
- % of control metabolism, raloxifene G2 [1, 10]: 35 (1) %
- % of control metabolism, raloxifene G1 [1, 11]: 34 (3) %
- % of control metabolism, raloxifene G2 [1, 11]: 35 (3) %
- % of control metabolism, raloxifene G1 [1, 12]: 8 (1) %
- % of control metabolism, raloxifene G2 [1, 12]: 15 (1) %
- % of control metabolism, raloxifene G1 [1, 13]: 48 (1) %
- % of control metabolism, raloxifene G2 [1, 13]: 50 (1) %
- % of control metabolism, raloxifene G1 [1, 14]: 18 (1) %
- % of control metabolism, raloxifene G2 [1, 14]: 25 (1) %
- % of control metabolism, raloxifene G1 [1, 15]: 8 (1) %
- % of control metabolism, raloxifene G2 [1, 15]: 15 (1) %
- % of control metabolism, raloxifene G1 [1, 16]: 6 (2) %
- % of control metabolism, raloxifene G2 [1, 16]: 13 (2) %
- inhibition of raloxifene glucuronidation, in words (UGT1A3; UGT1A3): good inhibitor
- activity at 15 min, 10 µM (UGT1A3; [17]): 81%
- activity at 15 min, 25 µM (UGT1A3; [17]): 53%
- activity at 15 min, 50 µM (UGT1A3; [17]): 28%
- activity at 15 min, 10 µM (UGT1A3; [18]): 56%
- activity at 15 min, 25 µM (UGT1A3; [18]): 49%
- activity at 15 min, 50 µM (UGT1A3; [18]): 25%
- activity at 15 min, 10 µM (UGT1A3; [19]): 72%
- activity at 15 min, 25 µM (UGT1A3; [19]): 52%
- activity at 15 min, 50 µM (UGT1A3; [19]): 28%
- activity at 15 min, 10 µM (UGT1A3; [20]): 73%
- activity at 15 min, 25 µM (UGT1A3; [20]): 49%
- activity at 15 min, 50 µM (UGT1A3; [20]): 25%
- residual metabolism (% of control), E2-3-β-D-glucuronide ([2]; inhibitor 25 μM): 44 (5) %
- residual metabolism (% of control), E2-17-β-D-glucuronide ([2]; inhibitor 25 μM): 72 (3) %
- residual metabolism (% of control), E2-3-β-D-glucuronide ([2]; inhibitor 50 μM): 29 (2) %
- residual metabolism (% of control), E2-17-β-D-glucuronide ([2]; inhibitor 50 μM): 56 (2) %
- residual metabolism (% of control), E2-3-β-D-glucuronide ([2]; inhibitor 100 μM): 12 (1) %
- residual metabolism (% of control), E2-17-β-D-glucuronide ([2]; inhibitor 100 μM): 42 (7) %
- inhibition of raloxifene glucuronidation, in words (UGT1A1): good inhibitor
